Test results taken from the METLIN SMRT retention time set (Domingo-Almenara et al. 2019).

Test: gradient 5% acetonitrile 3 min, to 50% in 2 min, to 85% in 15 min, held 3 min, 100 µL/min
Conditions: column: Zorbax Extend-C18 2.1 x 50 mm; eluents: water / acetonitrile, 0.1% formic acid
Summary of the method: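 Pure standards were run in mixtures of ~100 molecules by HPLC coupled to a quadrupole time-of-flight mass spectrometer. The column was a Zorbax Extend-C18 (2.1 × 50 mm, 1.8 μm) at 100 μL/min, with water and acetonitrile each containing 0.1% formic acid, in positive and negative ionization mode. Dead and dwell volumes were 40 μL and 900 μL. Retention time was taken from computationally picked adduct peaks, each manually inspected, with data collected over 3 months.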

Row | SMILES | RP-LC retention time
1 | CCOc1ccc(NC(=O)C2CCCN(c3ncnc4c3oc3ccccc34)C2)cc1 (stereo not drawn) | 816 s
2 | Cc1ccc(NS(=O)(=O)c2cn(C)c3ncccc23)cc1 | 774 s
3 | COC(=O)C(C)Sc1ncnc2c1oc1ccccc12 (stereo not drawn) | 906 s
4 | CN1CCC=C(C(=O)N2c3ccccc3Sc3ccc(Cl)cc32)C1 | 762 s
5 | O=S(=O)(c1cccn2c(SCc3ccc(F)cc3)nnc12)N1CCCC1 | 829 s
6 | CCCNc1cc(N2CCC(CCC(=O)NCc3cccnc3)CC2)ncn1 | 556 s
7 | COc1cc(NC(=O)N2CCCN(c3ccc(=O)n(-c4ccc(F)cc4)n3)CC2)cc(OC)c1OC | 702 s
8 | C[C@@H](NC(=O)c1ccc(Cl)cc1)C(=O)NCc1cscn1 | 673 s
9 | Cc1ccc(-n2nc(N3CCN(C(=O)c4ccc(Br)o4)CC3)ccc2=O)cc1 | 817 s
10 | CCN1C(=O)c2ccccc2Oc2ccc(C(=O)NCCc3ccc(Cl)cc3)cc21 | 998 s
11 | CC(CNC(=O)Cc1csc2nc(-c3ccccc3)cn12)c1ccccc1 (stereo not drawn) | 841 s
12 | COc1cc(OC)cc(-c2nnc(Cc3nc(-c4ccccc4C)no3)o2)c1 | 1060 s
13 | Cc1oc2c(c1C(=O)NCc1ccc(F)c(F)c1)C1=NC(C)(C)CN1C=N2 | 666 s
14 | N#Cc1ccsc1NC(=O)c1ccc2ncsc2c1 | 725 s
15 | Cc1ccc(Cn2nc3ccc(S(=O)(=O)N4CCOCC4)cn3c2=O)cc1 | 977 s
16 | Cc1cc(C)cc(N2C=C(C(=O)N3CCOCC3)S(=O)(=O)c3ccccc32)c1 | 826 s
17 | O=C(Nc1cccc(Br)c1)C1CCN(c2cc(N3CCCC3)ncn2)CC1 | 722 s
18 | CCOc1ccc(C(=O)N2CCC3(C2)C(=O)Nc2ccccc23)cc1 (stereo not drawn) | 725 s
19 | CC(C)N1C(=O)C(C)(C(=O)Nc2ccc(F)cc2)Oc2cccnc21 (stereo not drawn) | 986 s
20 | COc1ccc(Cl)cc1NC(=O)c1[nH]c(C)c(S(=O)(=O)N2CCCC2)c1C | 1040 s
21 | CCn1nccc1C(=O)NC1CCN(c2cc(-c3ccccc3)[nH]n2)CC1 | 688 s
22 | O=C(NCC1CCCCC1)c1ccc(NC(=O)C2CCC2)cc1N1CCOCC1 | 930 s

Row | SMILES | RP-LC retention time
23 | CCOC(=O)c1ccc(NC(=O)C2CCN(S(=O)(=O)c3cn(C(C)C)cn3)CC2)cc1 | 789 s
24 | Cc1nnc2n1CCN(C(=O)c1n[nH]c3ccccc13)C2 | 558 s
25 | CN(C)CCNC(=O)COc1ccccc1-c1nnc(-c2ccccc2)o1 | 659 s
26 | CCN1C(=O)c2cc(S(=O)(=O)Nc3cc(F)ccc3F)ccc2Oc2cccnc21 | 980 s
27 | O=C(c1cccc2[nH]ccc12)N1CCCC1c1nc(-c2cccc(Cl)c2)no1 (stereo not drawn) | 993 s
28 | Cc1ccccc1NC(=O)Cn1nc(N2CCOCC2)c2ccccc2c1=O | 774 s
29 | CCC(CC)N1CCN(C(=O)c2ccc3[nH]c4c(c3c2)CN(C(=O)C2CCC2)CC4)CC1 | 607 s
30 | Cc1cccc(-c2nnc(SCc3cc(=O)n4c(C)csc4n3)o2)c1 | 873 s
31 | COc1ccc(-c2noc(-c3nc(C(C)C)no3)n2)cc1OC | 1050 s
32 | COc1ccc(-c2c(C)noc2NC(C)=O)cc1S(=O)(=O)N1CC=C(c2ccccc2)CC1 | 879 s
33 | COc1cccc(N2CCN(C(=O)Cn3ccc4c(c(C)nn4-c4ccccc4)c3=O)CC2)c1 | 828 s
34 | COc1ccc2c(c1)C1(CCN(C(=O)NC(C)(C)C)C1)C(=O)N2 (stereo not drawn) | 695 s
35 | CCCc1ccc(S(=O)(=O)N2CCC(OCc3noc(C4CCCO4)n3)CC2)cc1 (stereo not drawn) | 987 s
36 | O=C(NCC1CC1)C1(CCO)CCN(Cc2ccccc2)C1 (stereo not drawn) | 581 s
37 | Cc1cc(-c2c(C)sc(C)c2S(=O)(=O)N2CC=C(c3ccccc3)CC2)n[nH]1 | 1040 s
38 | COc1ccc(-n2nnc(-c3nc(C)c(C(=O)NCc4ccco4)s3)c2C)cc1 | 879 s
39 | O=C1[C@H]2CN(Cc3cc(Cl)ccc3F)C[C@H]2C(=O)N1CCc1ccccc1 | 840 s
40 | CC(C)C(=O)NCc1csc(C2CCCN(C(=O)C3CCC3)C2)n1 (stereo not drawn) | 694 s
41 | CCOC(=O)c1[nH]c(C)c(CCC(=O)N2CCC(C(=O)NCCCc3ccccc3)CC2)c1C | 842 s
42 | CCN1CCC2(CC1)CC(c1nnc(C)o1)N(CCc1ccccc1)C2 (stereo not drawn) | 550 s
43 | CCc1ccc(C2=C(C)C(N3CCCN(C(=O)CC(C)C)CC3)=NS2(=O)=O)cc1 | 874 s
44 | CCOC(=O)c1csc(NC(=O)Cn2cnc(C)cc2=O)n1 | 598 s

Row | SMILES | RP-LC retention time
45 | O=C(Nc1ccc2c(c1)OCO2)C(=O)c1cccn1Cc1ccc(F)cc1 | 1050 s
46 | Cn1nc(-c2nnc(-c3ccc(F)cc3)o2)c2c1CCN(C(=O)Nc1ccccc1)C2 | 833 s
47 | CCOC(=O)c1cccc(Nc2c(C(=O)N3CCCCC3CC)cnc3nc(C)ccc23)c1 (stereo not drawn) | 704 s
48 | CCNc1nc(C)cc(N2CCN(C(=O)Nc3ccccc3)CC2)n1 | 636 s
49 | CCCn1ncc(N2CCC(C(=O)Nc3ccc(OC)c(OC)c3)CC2)cc1=O | 693 s
50 | CCOC(=O)C1=C(C)NC2=C(C(=O)c3ccccc32)C1c1ccc(OC)c(OC)c1 (stereo not drawn) | 902 s
51 | Cc1cc(Br)ccc1NC(=O)Cn1cnc2nc3c(cc2c1=O)CCCC3 | 777 s
52 | Cc1ccc(N(C)C(=O)C2CCCN2S(=O)(=O)c2cc3c(cc2C)NC(=O)C(C)O3)cc1 (stereo not drawn) | 814 s
53 | CCCCN(C)CCNC(=O)C1c2ccccc2C(=O)N2CCc3cc(OC)c(OC)cc3C12 (stereo not drawn) | 633 s
54 | CCc1nc(-c2csc(S(=O)(=O)N3CCCC(C(=O)Nc4ccc(F)cc4F)C3)c2)no1 (stereo not drawn) | 1060 s
55 | Cc1cc(SCC(=O)Nc2ccccc2Br)nc(-c2ccc(F)cc2)n1 | 1170 s
56 | CCOC(=O)COC(=O)c1cn(-c2ccc(F)cc2)c(=O)c2ccccc12 | 1030 s
57 | CC(C)c1nnc(-c2ccc(S(=O)(=O)NC3CCCCCC3)o2)o1 | 985 s
58 | CN1CCc2cccc3c2C1Cc1ccc(O)c(O)c1-3 (stereo not drawn) | 606 s
59 | CCCn1cc(C2=CCN(S(=O)(=O)c3c(C)nn(C)c3C)CC2)c2cccnc21 | 896 s
60 | COc1cc(OC)cc(C(=O)Nc2ccc3c(c2)Sc2ncccc2C(=O)N3C)c1 | 858 s
61 | CC(C)(C)n1nnnc1C1CC2(CCOCC2)C(=O)N1Cc1cc(F)ccc1F (stereo not drawn) | 793 s
62 | COCCn1c(C)cc(O)c(C(c2ccc(Cl)cc2)N2CCC(C)CC2)c1=O (stereo not drawn) | 644 s
63 | CCc1ccc(C(=O)Nc2cc(-c3ccn[nH]3)sc2C)cc1 | 1120 s
64 | Cn1c(C(=O)Nc2ccc(N3CCOCC3)cc2)cc2c1CCN(Cc1ccccc1)C2 | 618 s
65 | CCCn1cc(C(=O)NCc2ccccc2F)c(S(=O)(=O)N2CCC(C)CC2)n1 | 1090 s
66 | C=CCNC(=O)C1CCCN(C(=O)Nc2ccc(NC(=O)Nc3ccccc3F)cc2)C1 (stereo not drawn) | 731 s

Row | SMILES | RP-LC retention time
67 | O=c1c(=O)n(-c2ccccc2)ccn1Cc1nc(-c2cccc(F)c2)no1 | 805 s
68 | COCCCNC(=O)c1nc(Nc2ccccc2)c2ccccc2n1 | 664 s
69 | CNC(=O)c1cccc(C(=O)N(C)c2ccccc2)n1 | 662 s
70 | COc1cccc(NC(=O)C2CC(=O)N(c3ccc4c(c3)CCN4C(=O)C3CCC3)C2)c1 (stereo not drawn) | 817 s
71 | CCN(CC)c1cc(CNC(=O)Nc2cc(Cl)c(OC)cc2OC)ccn1 | 638 s
72 | CNS(=O)(=O)c1ccc(C(=O)N2CCc3ccccc3C2)o1 | 724 s
73 | COc1ccc(C(=O)N2CCN(c3ccc(-c4nc(C)cs4)cn3)CC2)cc1F | 819 s
74 | O=C(Cn1c(=O)nc(-c2ccccc2)c2cc(Cl)ccc21)N1CCN(c2ccccn2)CC1 | 646 s
75 | O=C(Nc1cc(F)ccc1F)c1cc2sccc2n1Cc1ccc(F)cc1 | 1200 s
76 | CCCn1cnc2ccc(-c3noc(C4CC(=O)N(c5ccc(C)cc5)C4)n3)cc21 (stereo not drawn) | 735 s
77 | CCN1C(=O)CN(C(=O)CC(C)C)CC12CCOCC2 | 634 s
78 | Cc1cc(N2CCOCC2)nc(N2CCN(C(=O)c3ccc(C)c(C)c3)CC2)n1 | 646 s
79 | O=S1(=O)C[C@H](N2CCN(c3cccc(Cl)c3)CC2)[C@@H](S(=O)(=O)c2ccc(F)cc2)C1 | 1040 s
80 | COc1ccc(-c2noc(C3CC(=O)N(c4cccc(Cl)c4)C3)n2)cc1OC (stereo not drawn) | 934 s
81 | NC(=O)Cn1c2ccccc2c2ncn(Cc3nc(-c4ccccc4)no3)c(=O)c21 | 730 s
82 | O=C(O)c1cnc(NCc2ccco2)nc1-c1ccccc1 | 772 s
83 | CCCS(=O)(=O)c1nc2ccc(NS(=O)(=O)c3ccc(F)cc3F)cc2s1 | 934 s
84 | COCCn1cc2c3c(cccc31)CN(C(=O)Nc1cc(OC)cc(OC)c1)CC2 | 926 s
85 | O=C(COc1cc(O)c2c(=O)c3ccccc3oc2c1)OCc1ccccc1 | 1220 s
86 | Cc1ccc(-c2noc(CN3N=NC4C(=O)N(c5ccc(C)cc5)C(=O)C43)n2)cc1 (stereo not drawn) | 1020 s
87 | COc1cccc(-c2nc(Cn3cnc4ccccc4c3=O)no2)c1OC | 802 s
88 | CCc1ccc(-c2noc(CN3C(=O)COc4ccc(C)cc43)n2)cc1 | 1160 s
